| melting point | SMILES |
| --- | --- |
| 198 to 200 °C | NC(=O)c1ccc(-c2ccc3nnn(Cc4ccc5ncccc5c4)c3n2)cc1F |
| > 270 °C | CN1CCC(C2=C(C#N)C(c3cccc(C#N)c3Br)c3c[nH]nc3N2)CC1 (stereo unspecified) |
| 235 °C | O=C(O)c1ccc(-c2ccc(OCCCCCCO)cc2)cc1 |
| 108 to 109 °C | N#Cc1cc(Br)cc(CO)c1 |
| 93 to 94 °C | COC(=O)c1c(Cl)cc(Cl)cc1NC(=O)CSc1ccccc1C |
| 152 to 154 °C | CC(C)(C)c1cc(-n2nc3ccc(S(=O)c4ccccc4)cc3n2)c(O)c(C(C)(C)C)c1 (stereo unspecified) |
| 245 °C | O=C(O)COc1ccc2cc(CNC(=O)c3cnn(-c4ccc(Cl)cc4)c3C(F)(F)F)ccc2c1Br |
| 118 to 121 °C | CC1(C)CC(NCC(O)COc2ccc(C(=O)c3ccccc3)c(O)c2)CC(C)(C)N1OC1CCCCC1 (stereo unspecified) |
| 222 to 223 °C | Cn1ncnc1COc1nc2c(-c3ccccc3)nncc2cc1-c1ccccc1 |
| 276 to 277 °C | CCOc1ccccc1C1=NC(=O)C2=NC=NC2=N1 |
| 199 to 201 °C | CC(=O)Nc1cccc2c(=O)n(C)c3ccccc3c(=O)c12 |
| 146 to 147 °C | COc1ccc(OC)c2c1C(=O)C=C(SCCCCCCCCCCC(=O)O)C2=O |
| 142 to 143 °C | O=C(O)[C@@H](O)CNC(=O)C(F)(F)F |
| 170 to 171 °C | COC(=O)C=Cc1cnc(Cl)cc1NCc1ccc(OC)c(Cl)c1 |
| 218 to 219 °C | CC(C)(C)c1cc(-c2ccc(NC(=O)CCCC(=O)O)cc2)cc(C(C)(C)C)c1O |
| 136 °C | CC1(C)Cc2c(N)c(Cl)cc(C(=O)NC3CCN(CCCC4(C)OCCO4)CC3)c2O1 |
| > 250 °C | NC(=O)N1C(=O)C(C(=O)c2cccs2)c2ncc(Cl)cc21 (stereo unspecified) |
| 170 to 173 °C | CCOC(=O)C(=O)Nc1cccc(OC)c1C(N)=O |
| 170 °C | O=c1nc(-c2cccc(Cl)c2)c2cc(C(c3ccc(Cl)cc3)n3ccnc3-c3ccccc3)ccc2[nH]1 (stereo unspecified) |
| 60 to 67 °C | CN(C)c1cccc2c(S(=O)(=O)NCC(=O)N3CCC[C@H]3C(=O)OC(C)(C)C)cccc12 |
| 244 to 245 °C | CCOC(=O)c1[nH]c2cc(Cl)cc(Cl)c2c1NCS(=O)(=O)c1ccccc1 |
| 149 to 150 °C | COc1ccc2c(c1)C(=O)c1c-2c(Cl)nc2ccc(F)cc12 |
| 166 to 169 °C | CCCCNC(=O)ON1C(C)(C)CC(OC(=O)C(CC)(CC)C(=O)OC2CC(C)(C)N(OC(=O)NCCCC)C(C)(C)C2)CC1(C)C |
| 199 to 201 °C | O=C(c1ccccc1Nc1ccc(O)cc1)N1CCCCC1 |

| melting point | SMILES |
| --- | --- |
| 153 to 154 °C | CC(C)Oc1ccc(C(CC(N)=O)N2C(=O)c3ccccc3C2=O)cc1OC(C)C (stereo unspecified) |
| 173 to 174 °C | N#CNC(=Nc1cccnc1)NC1CCN(Cc2ccccc2)CC1 |
| 139 to 141 °C | COc1ccc(CSc2ccc(S(N)(=O)=O)s2)cc1 |
| 90 to 92 °C | COc1cc(Cl)c(N=C2NCCN2OCc2ccccc2)c(Cl)c1 |
| 135 to 137 °C | Cc1ccc(Cc2cnc(NCCCCc3cc(CN(C)C)ccn3)[nH]c2=O)cn1 |
| 169 to 170 °C | N#CC(SSC(C#N)c1c[nH]c2ccccc12)c1c[nH]c2ccccc12 (stereo unspecified) |
| 67 to 69 °C | COC(=O)C(Cc1ccccc1)Oc1ccc(-c2ccc(-c3c(Cc4ccccc4)oc4ccccc34)cc2)cc1 (stereo unspecified) |
| 122 to 125 °C | CSc1nc(-c2cc(N)ccc2C)c2c(n1)N(c1c(F)cccc1F)C(=O)NC2 |
| 49.5 to 50 °C | CSc1ccc(OC(=O)OCc2ccccc2Cl)cc1 |
| 158 to 161 °C | COc1ccc(N(CC(=O)O)c2ccccc2)c(C(=O)O)c1 |
| 151 to 152 °C | CCCCCCCCCCNC(=O)C=Cc1cccc(N2CC(C(=O)O)CC2=O)c1 (stereo unspecified) |
| 111 to 113 °C | O=C(Nc1ccccc1N1CCCCC1)c1ccncc1 |
| 65 to 66 °C | O=[N+]([O-])c1ccc(F)c(Br)c1O |
| 111 to 112 °C | COc1ccc(C(=O)NCc2ccc(OCCN(C)C)cc2)cc1OC |
| 226 to 229 °C | CCn1c(=O)c(CC(=O)O)cc2ccc(O)cc21 |
| 214 to 215 °C | O=C(Nc1c(C(O)(C(F)(F)F)C(F)(F)F)ccc2ccccc12)c1cccnc1 |
| 131 to 132 °C | OC(CNc1c(Br)cnc2ccccc12)c1ccccc1 (stereo unspecified) |
| 199 to 200 °C | Cc1ncc(CNC(=O)c2ccc3n2Cc2ccccc2N(C(=O)CSc2ccc(Br)cc2)C3)c(CO)c1O |
| 177 to 178 °C | CNC(=S)NN1Cc2c(C)ccc(C)c2C1 |
| 163 to 164 °C | CCO/C=C/C(=O)Nc1ccc(Br)cc1C |
| 117 to 119 °C | CCCN(c1ccccc1)c1nc(C)nc(SC)c1[N+](=O)[O-] |
| 158 to 160 °C | Cc1ccc(Cl)c(Nc2ccccc2-c2nnc(S(C)=O)s2)c1Cl (stereo unspecified) |
| 91 to 93 °C | CC(=O)n1ncc2c(OCc3ccccc3)cc(C)cc21 |
| 185 to 186 °C | CCCCNC(=O)/C(=C/C=C/c1cc2ccccc2[nH]1)OC |

| melting point | SMILES |
| --- | --- |
| 110 to 111 °C | Nc1ccc(Cl)cc1C(=O)c1ccccc1OCc1ccccc1 |
| 290 to 300 °C | O=C(O)C1=Cc2cc(Br)ccc2S(=O)(=O)CC1 |
| 111 to 113 °C | O=C(Nc1c(Cl)cncc1Cl)c1ccc(SCF)c(OC2CCCC2)c1 |
| 203 to 205 °C | Cn1c(=O)c2cc([N+](=O)[O-])cnc2n(C)c1=O |
| 169 to 170 °C | Cc1nc2c(N)nc3ccccc3c2n1CCCCNC(=O)C1CCCC1 |
| 255 °C | CCOc1ccc2c(c1)n(C1CCOCC1)c(=O)n2S(=O)(=O)c1ccc(C(=O)O)cc1OC |
| 180 to 181 °C | Cc1ncccc1NC(=NC#N)NC(NC(=O)Cc1ccc(Cl)cc1)C(C)(C)C (stereo unspecified) |
| 196 to 198 °C | O=C1c2ccc([N+](=O)[O-])cc2C(=O)N1CC(=O)N1c2ccccc2N(Cc2ccccc2)C(=O)[C@H]2CCC[C@H]21 (relative stereo) |
| 207 °C | COCCN1CCN(c2ccc(NC(=O)c3cnn(-c4ccc(Cl)cc4)c3C)cc2C#N)CC1 |
| 139 to 141 °C | COC(=O)[C@H]1C=C(c2ccc(Br)cc2)OC(=O)[C@H]1Cc1ccccc1 |
| 118 to 120 °C | CCc1nc2c(cnn2CC)c(NC2CCOCC2)c1CNC(=O)c1cccc(C(=O)NCc2ccc(C)c(-c3cccc(CN4CCCNCC4)c3)c2)c1 |
| 150 to 152 °C | CC(C)(C)[Si](C)(C)OC1CCCc2cnc3cc(OCc4ccccc4[N+](=O)[O-])ccc3c21 (stereo unspecified) |
| 168 to 169 °C | CN(C(=O)C(C)(C)NC(=O)OCc1ccccc1)c1ccc([N+](=O)[O-])cc1C(=O)c1ccccc1F |
| 62 to 64 °C | CCOC(=O)c1cccn2cc(C)nc12 |
| 191 to 192 °C | Cn1c(=O)c(C(=O)C2=C(O)CCCC2=O)nc2ccccc21 |
| 130 to 134 °C | CCON=C(C)c1ccc2c(c1)ncn2-c1cccc(COCc2ncnn2C)c1 |
| 133 to 135 °C | CC(C)N1C(=O)c2cncnc2N(C(=O)CN2CCN(C)CC2)c2ccccc21 |
| 79 to 80 °C | CC(=O)Nc1nc(-c2ccccc2)c(CCOC(C)=O)c2ncnn12 |
| 103 to 104 °C | CCCCc1c(C(C)C)nc(C(C)C)c(C(C)O)c1-c1ccc(F)cc1 (stereo unspecified) |
| 139 to 141 °C | Cc1cc(O)c(SCc2ccc(Cl)cc2)c(=O)o1 |
| 150 to 152 °C | COCCc1nc2c(N)nc3c(c2n1CCCNS(C)(=O)=O)CCCC3 |
| 216 to 218 °C | COc1cc2c(cc1C(F)(F)F)N(C(=O)Nc1cc(Br)c(C)c(-c3cccnc3)c1)CC2 |
| 98 to 100 °C | COC(=O)CCC(=O)c1ccc(SC(=O)N(C)C)cc1 |
| 92 to 93 °C | S=C(Cc1cccnc1)N1CCC(=C2c3ccc(Cl)cc3CCc3cccnc32)CC1 |

| melting point | SMILES |
| --- | --- |
| 112 to 114 °C | CN(C)CCCNC(=S)Nc1ccccc1 |
| 83 °C | COC(=O)CCCc1cc2nc(Cl)ccc2n1S(=O)(=O)c1ccccc1F |
| 71 to 73 °C | Cc1cnc2oc(-c3ccccc3)nc2c1 |
| 171 to 173 °C | COc1nc2cc([N+](=O)[O-])c(C)c(C(=O)NCc3ccccc3)c2nc1OC |
| 183 to 184 °C | O=C(NCc1ccccc1)NCC(C(=O)O)C(F)(F)F (stereo unspecified) |
| 117 to 119 °C | COc1ccc(COc2cccc(C=C(C=O)C(C=O)=Cc3cccc(OCc4ccc(OC)cc4)c3)c2)cc1 |
| 79 to 80 °C | BrC(Br)(Br)c1nc2ccccc2s1 |
| 85 to 87 °C | CN(C(=O)OC(C)(C)C)c1ccc(C#CCCCOS(C)(=O)=O)cc1 |
| 71 to 72 °C | CCCc1c(OCCCOc2ccc(C(=O)OCCCN(C)C)cc2Br)ccc(C(C)=O)c1O |
| 174 to 175 °C | CC(=O)OCC(=O)C1CCC2C3CCC4CC(O)C(N5CCOC(C)(C)C5)CC4(C)C3CCC12C (stereo unspecified) |
| 215 to 219 °C | Cc1cc(-c2ccc(S(C)(=O)=O)cc2)n(-c2ccc(-c3ccoc3)cc2)c1C |
| 165 °C | COC(=O)C1=C(C)Nc2nc(N3CCOCC3)nc(N3CCOCC3)c2C1c1cccc([N+](=O)[O-])c1 (stereo unspecified) |
| 178 to 180 °C | Cc1cc(C)c2cccc(OCc3c(Cl)ccc(S(=O)(=O)N4CCC[C@H]4C(=O)NCCCNC(=O)c4ccc(C=NN)cc4)c3Cl)c2n1 |
| 181 to 183 °C | COc1ccc(C2=NN(c3ccc(S(N)(=O)=O)cc3)C(=O)[C@H]3CC=CC[C@@H]23)cc1OC (relative stereo) |
| 84 °C | CC(=O)N(C)c1csc(Br)n1 |
| 179 to 181 °C | O=C(CCl)Nc1nc(-c2ccccc2)cs1 |
| 235 to 237 °C | CN=C(C1=C(O)C(=O)c2ccccc2C1=O)c1ccccc1 |
| 62 to 63 °C | Brc1cccc(OCCOc2nccnc2N2CCNCC2)c1 |
| 149 to 153 °C | CCOC(=O)c1cn(C2CC2)c2c(Cl)c(F)ccc2c1=O |
| 97 to 98 °C | COC(=O)c1c(Cl)c(-c2cccc(C(F)(F)F)c2)nn1C |
| 135 to 137 °C | Cc1nn(-c2cc([N+](=O)[O-])c(Cl)cc2F)c(Cl)c1Br |
| 167 to 168 °C | O=C(NCc1noc(-c2c3ccccc3nn2CCn2ccnc2)n1)c1ccccc1 |

| SMILES | melting point |
| --- | --- |
| CN1CCC23COC(C)(C)OC2C1Cc1ccc(O)cc13 (stereo unspecified) | 237 to 238 °C |
| CC(=O)Nc1cccc(/C=C/C(=O)N2CC(CCl)c3ccc([N+](=O)[O-])cc32)c1 (stereo unspecified) | 229 to 230 °C |

From a melting point compilation (Tetko et al.; mined from patent text by program, amines drawn as free bases though some values may be those of a salt)
